The source made the active and inactive calls.
Tests used:
[1] = biological target: T1, Zinc finger protein mex-5 (Caenorhabditis elegans, UniProt Q9XUB2); test: potency of MEX-5 RNA-binding blockers – biochemical, C. elegans, fluorescence polarization, dose response (AID 1960)
T1 sequence (Q9XUB2 whole entry): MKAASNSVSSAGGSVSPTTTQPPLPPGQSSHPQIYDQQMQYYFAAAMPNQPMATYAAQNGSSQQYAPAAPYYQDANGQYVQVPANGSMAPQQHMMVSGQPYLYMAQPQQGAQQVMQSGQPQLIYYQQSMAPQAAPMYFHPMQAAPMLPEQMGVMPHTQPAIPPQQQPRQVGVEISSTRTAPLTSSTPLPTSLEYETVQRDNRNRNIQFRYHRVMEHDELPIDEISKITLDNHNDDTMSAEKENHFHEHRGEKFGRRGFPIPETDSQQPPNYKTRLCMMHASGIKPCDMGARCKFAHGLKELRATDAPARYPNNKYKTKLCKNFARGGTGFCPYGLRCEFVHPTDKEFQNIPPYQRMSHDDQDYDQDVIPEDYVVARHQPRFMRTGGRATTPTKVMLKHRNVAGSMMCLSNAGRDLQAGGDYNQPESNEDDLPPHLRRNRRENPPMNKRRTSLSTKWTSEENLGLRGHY

[2] = Counterscreen for AddAB inhibitors: absorbance-based bacterial cell-based high throughput dose response assay for inhibitors of bacterial viability. [Related pubchem assays (depositor defined):AID435030, AID449728, AID449731, AID488942, AID488955, AID488956]; type: functional
[3] = biological target: T2, Serine/threonine-protein phosphatase (Candida dubliniensis (strain CD36 / CBS 7987 / NCPF 3949 / NRRLY-17841) (Yeast), UniProt B9W6M3); test: blockers of CaCl2-induced CDRE-lacZ signaling – S. cerevisiae, luminescence, secondary, dose response (AID 2388); type: functional, cell-based;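 further: yeast reporter cells carrying a calcineurin-responsive lacZ construct stimulated with calcium chloride; luminescent beta-galactosidase reporter signal in whole cells rather than isolated phosphatase activity; potency for inhibition where a drop in reporter signal means calcineurin blockade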
T2 sequence (B9W6M3 whole entry): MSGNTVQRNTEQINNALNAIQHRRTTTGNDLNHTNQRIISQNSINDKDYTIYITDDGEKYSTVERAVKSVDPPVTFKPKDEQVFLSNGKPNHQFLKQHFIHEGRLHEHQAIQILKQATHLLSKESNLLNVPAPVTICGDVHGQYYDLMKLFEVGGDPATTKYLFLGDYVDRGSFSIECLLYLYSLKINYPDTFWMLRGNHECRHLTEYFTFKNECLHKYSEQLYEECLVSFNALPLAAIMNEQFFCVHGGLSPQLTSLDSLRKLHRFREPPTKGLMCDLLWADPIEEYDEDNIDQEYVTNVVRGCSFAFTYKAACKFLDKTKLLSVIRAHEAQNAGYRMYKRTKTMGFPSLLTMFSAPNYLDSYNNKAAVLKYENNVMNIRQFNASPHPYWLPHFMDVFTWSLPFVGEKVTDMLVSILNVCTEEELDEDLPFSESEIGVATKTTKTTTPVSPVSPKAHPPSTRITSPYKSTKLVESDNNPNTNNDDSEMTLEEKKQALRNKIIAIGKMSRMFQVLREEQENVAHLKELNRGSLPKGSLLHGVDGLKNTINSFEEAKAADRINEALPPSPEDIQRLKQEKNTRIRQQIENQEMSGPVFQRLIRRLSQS

[4] = biological target: Dual specificity protein phosphatase 3 (Homo sapiens, UniProt P51452); test: VHR1 phosphatase inhibitors, biochemical (AID 1878)
Sequence of Dual specificity protein phosphatase 3 (P51452 whole entry): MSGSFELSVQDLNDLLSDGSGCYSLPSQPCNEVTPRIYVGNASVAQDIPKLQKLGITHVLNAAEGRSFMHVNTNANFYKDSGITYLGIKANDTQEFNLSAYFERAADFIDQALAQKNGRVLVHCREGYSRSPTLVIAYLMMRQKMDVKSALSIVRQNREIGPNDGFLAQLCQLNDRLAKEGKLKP

[5] = biological target: T3, Apoptotic protease-activating factor 1 (Homo sapiens, UniProt O14727); type: functional
T3 sequence (O14727 whole entry): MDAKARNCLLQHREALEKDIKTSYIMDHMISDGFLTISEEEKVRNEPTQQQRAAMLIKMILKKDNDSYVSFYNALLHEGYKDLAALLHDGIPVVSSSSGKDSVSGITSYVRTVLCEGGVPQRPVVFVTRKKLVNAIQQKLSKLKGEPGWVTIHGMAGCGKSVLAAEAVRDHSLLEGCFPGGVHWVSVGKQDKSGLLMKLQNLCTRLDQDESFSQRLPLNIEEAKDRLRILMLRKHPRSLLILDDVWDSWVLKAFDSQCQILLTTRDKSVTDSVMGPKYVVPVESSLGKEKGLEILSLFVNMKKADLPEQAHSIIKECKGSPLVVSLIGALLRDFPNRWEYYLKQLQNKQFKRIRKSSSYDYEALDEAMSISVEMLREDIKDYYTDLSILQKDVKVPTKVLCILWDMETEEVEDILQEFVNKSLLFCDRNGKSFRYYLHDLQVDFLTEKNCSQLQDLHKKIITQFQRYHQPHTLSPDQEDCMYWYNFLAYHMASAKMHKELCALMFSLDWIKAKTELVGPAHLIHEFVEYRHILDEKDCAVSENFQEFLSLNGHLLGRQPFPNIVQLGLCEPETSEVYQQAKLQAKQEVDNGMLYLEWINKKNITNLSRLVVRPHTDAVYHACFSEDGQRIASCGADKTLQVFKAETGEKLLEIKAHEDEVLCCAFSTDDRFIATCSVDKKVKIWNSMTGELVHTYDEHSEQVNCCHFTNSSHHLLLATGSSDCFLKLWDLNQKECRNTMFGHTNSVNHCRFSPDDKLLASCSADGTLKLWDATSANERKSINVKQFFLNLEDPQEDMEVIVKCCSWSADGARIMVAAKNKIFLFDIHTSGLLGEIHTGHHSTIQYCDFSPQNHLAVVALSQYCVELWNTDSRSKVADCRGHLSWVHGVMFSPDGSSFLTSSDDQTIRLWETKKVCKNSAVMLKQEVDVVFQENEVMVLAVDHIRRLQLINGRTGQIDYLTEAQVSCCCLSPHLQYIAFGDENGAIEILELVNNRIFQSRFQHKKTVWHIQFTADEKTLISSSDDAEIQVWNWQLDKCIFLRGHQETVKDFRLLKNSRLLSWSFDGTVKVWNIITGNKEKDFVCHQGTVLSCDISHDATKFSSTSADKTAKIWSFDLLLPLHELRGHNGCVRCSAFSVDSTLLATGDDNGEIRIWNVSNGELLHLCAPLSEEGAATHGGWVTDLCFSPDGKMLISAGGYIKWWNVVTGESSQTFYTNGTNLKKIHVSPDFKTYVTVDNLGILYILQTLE

[6] = biological target: Dual specificity tyrosine-phosphorylation-regulated kinase 1A (Rattus norvegicus, UniProt Q63470); type: biochemical, Homo sapiens
[7] = biological target: Lysine-specific demethylase 4C (Homo sapiens, UniProt Q9H3R0); test: inhibition of JMJD2C H3K9me3 demethylation – biochemical, DELFIA europium, cherry-picked samples, dose response (AID 488835); type: functional
Sequence of Lysine-specific demethylase 4C (Q9H3R0 whole entry): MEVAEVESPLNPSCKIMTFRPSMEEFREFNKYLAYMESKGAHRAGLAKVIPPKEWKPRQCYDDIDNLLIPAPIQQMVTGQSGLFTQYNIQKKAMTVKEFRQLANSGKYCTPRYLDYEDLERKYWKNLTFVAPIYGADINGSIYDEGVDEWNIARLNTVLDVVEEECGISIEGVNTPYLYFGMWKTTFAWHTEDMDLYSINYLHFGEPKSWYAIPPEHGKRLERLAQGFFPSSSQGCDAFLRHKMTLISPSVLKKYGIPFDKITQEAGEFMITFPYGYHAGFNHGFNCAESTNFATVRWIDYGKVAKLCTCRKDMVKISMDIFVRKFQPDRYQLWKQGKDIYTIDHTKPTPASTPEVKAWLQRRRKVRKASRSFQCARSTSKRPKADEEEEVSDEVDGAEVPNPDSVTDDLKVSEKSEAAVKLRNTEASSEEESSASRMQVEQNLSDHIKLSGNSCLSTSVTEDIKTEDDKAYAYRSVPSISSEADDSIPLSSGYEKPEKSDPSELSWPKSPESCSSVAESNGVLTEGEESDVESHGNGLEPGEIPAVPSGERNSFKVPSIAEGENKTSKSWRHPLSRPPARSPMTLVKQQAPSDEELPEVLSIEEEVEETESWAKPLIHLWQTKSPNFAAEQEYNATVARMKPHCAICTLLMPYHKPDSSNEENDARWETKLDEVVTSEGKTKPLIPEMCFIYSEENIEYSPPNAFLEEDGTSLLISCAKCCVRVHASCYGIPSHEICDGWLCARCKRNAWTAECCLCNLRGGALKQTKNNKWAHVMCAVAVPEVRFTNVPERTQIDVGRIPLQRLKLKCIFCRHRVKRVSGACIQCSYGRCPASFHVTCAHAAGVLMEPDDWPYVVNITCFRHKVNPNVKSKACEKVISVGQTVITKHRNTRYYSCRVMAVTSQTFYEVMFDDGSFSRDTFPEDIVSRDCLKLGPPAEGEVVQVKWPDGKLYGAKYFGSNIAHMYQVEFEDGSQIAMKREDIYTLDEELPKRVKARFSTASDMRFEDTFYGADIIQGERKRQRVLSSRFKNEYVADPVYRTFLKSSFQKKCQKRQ

[8] = general mammalian cell viability loss – inhibitor set, cherry-pick, set 2, cytotoxicity control for miR-122 modulator project, dose response (AID 720697); type: functional, cell-based

In the case of `COc1ccc(NS(=O)(=O)c2ccc3c(c2)[C@H]2C=CC[C@H]2[C@@H](c2ccc(C(=O)O)cc2)N3)cc1`, the EC50 [1] is reported as 7.88 µM (active).

In the case of `CCC(=O)NC(c1ccc(OC)cc1)c1cc(Cl)c2cccnc2c1O` (stereo not drawn), the IC50 [2] is reported as > 119 µM (inactive) and the EC50 [3] is reported as > 180 µM (inactive).

For `Cn1nc(-c2ccccn2)nc2c(=O)n(C)c(=O)nc1-2`, the IC50 [4] was 10.2 µM (active), the IC50 [5] was 0.079 µM (active) and the AC50 [6] was 0.284 µM (active). For the same compound, the AC50 [7] was 0.873 µM (active).

In the case of `CCCCCCCCCCn1c2c(c(=N)c3c1CCC3)CCC2`, the AC50 [8] is reported as 1.8 µM (active).
